# Source: US7514443B2, “Substituted pyrazolo[1,5-a]pyrimidines as inhibitors of metabotropic glutamate receptors” (Hoffmann-La Roche Inc., priority 2003, dated 2009)
row,Structure (SMILES),melting point [°C]
1,"N#Cc1cnn2c(C(F)(F)F)cc(-c3ccc(C(F)(F)F)cc3)nc12 [Example 1.7, 5-(4-Trifluoromethyl-phenyl)-7-trifluoromethyl-pyrazolo[1,5-a]pyrimidine-3-carbonitrile]",176
2,"FC(F)(F)COc1cc(-c2cc(C(F)(F)F)n3cnc(-c4ccncc4)c3n2)ccc1C(F)(F)F [Example 8.32, 8-Pyridin-4-yl-2-[3-(2,2,2-trifluoro-ethoxy)-4-trifluoromethyl-phenyl]-4-trifluoromethyl-imidazo[1,5-a]pyrimidine]",233
3,"N#Cc1ncn2c(C(F)(F)F)cc(-c3ccc(Cl)cc3)nc12 [Example 5.2, 2-(4-Chloro-phenyl)-4-trifluoromethyl-imidazo[1,5-a]pyrimidine-8-carbonitrile]",205
4,"Cc1cc(-c2ncn3c(C(F)(F)F)cc(-c4ccc(Cl)cc4)nc23)ccn1 [Example 8.20, 2-(4-Chloro-phenyl)-8-(2-methyl-pyridin-4-yl)-4-trifluoromethyl-imidazo[1,5-a]pyrimidine]",232
5,"FC(F)(F)c1cc(-c2ccc(Br)cc2)nc2c(-c3ccncc3)cnn12 [Example 4.55, 5-(4-Bromo-phenyl)-3-pyridin-4-yl-7-trifluoromethyl-pyrazolo[1,5-a]pyrimidine]",289
6,"Cc1cc(-c2cnn3c(C(F)(F)F)cc(-c4ccc(OCC(F)(F)F)c(C(F)(F)F)c4)nc23)ccn1 [Example 4.46, 5-[4-(2,2,2-Trifluoroethoxy)-3-trifluoromethyl-phenyl]-3-(2-methyl-pyridin-4-yl)-7-trifluoromethyl-pyrazolo[1,5-a]pyrimidine]",210
7,"FC(F)(F)COc1ccc(-c2cc(C(F)(F)F)n3ncc(-c4cccnc4)c3n2)cc1C(F)(F)F [Example 4.42, 5-(4-Trifluoroethoxy-3-trifluoromethyl-phenyl)-3-pyridin-3-yl-7-trifluoromethyl-pyrazolo[1,5-a]pyrimidine]",181
8,"N#Cc1cnn2c(C(F)(F)F)cc(-c3ccc(F)cc3)nc12 [Example 1.9, 5-(4-Fluoro-phenyl)-7-trifluoromethyl-pyrazolo[1,5-a]pyrimidine-3-carbonitrile]",198
9,"N#Cc1ncn2c(C(F)(F)F)cc(-c3ccc(Cl)cc3Cl)nc12 [Example 5.7, 2-(2,4-Dichloro-phenyl)-4-trifluoromethyl-imidazo[1,5-a]pyrimidine-8-carbonitrile]",139
10,"N#Cc1ncn2c(C(F)(F)F)cc(-c3ccccn3)nc12 [Example 5.25, 2-Pyridin-2-yl-4-trifluoromethyl-imidazo[1,5-a]pyrimidine-8-carbonitrile]",205
11,"Cc1cc(-c2cnn3c(C(F)(F)F)cc(-c4ccc(C)c(C(F)(F)F)c4)nc23)cc(C)n1 [Example 4.28, 5-(4-Methyl-3-trifluoromethyl-phenyl)-3-(2,6-dimethyl-pyridin-4-yl)-7-trifluoromethyl-pyrazolo[1,5-a]pyrimidine]",258
12,"Cc1nn2c(C(F)(F)F)cc(-c3ccc(C(F)(F)F)cc3)nc2c1C#N [Example 2.1, 2-Methyl-5-(4-trifluoromethyl-phenyl)-7-trifluoromethyl-pyrazolo[1,5-a]pyrimidine-3-carbonitrile]",184
13,"CCOc1cc(-c2cc(C(F)(F)F)n3cnc(-c4ccnc(C)c4)c3n2)ccc1C(F)(F)F [Example 8.31, 2-(3-Ethoxy-4-trifluoromethyl-phenyl)-8-(2-methyl-pyridin-4-yl)-4-trifluoromethyl-imidazo[1,5-a]pyrimidine]",177
14,"N#Cc1ncn2c(C(F)(F)F)cc(-c3cccnc3)nc12 [Example 5.26, 2-Pyridin-3-yl-4-trifluoromethyl-imidazo[1,5-a]pyrimidine-8-carbonitrile]",222
15,"Cc1ccc(-c2cc(C(F)(F)F)n3ncc(C#N)c3n2)cc1 [Example 1.2, 5-(4-Methyl-phenyl)-7-trifluoromethyl-pyrazolo[1,5-a]pyrimidine-3-carbonitrile]",121
16,"Cc1cc(-c2cnn3c(C(F)(F)F)cc(-c4ccc(Br)cc4)nc23)cc(C)n1 [Example 4.57, 5-(4-Bromo-phenyl)-3-(2,6-dimethyl-pyridin-4-yl)-7-trifluoromethyl-pyrazolo[1,5-a]pyrimidine]",258

# Further lines, results first:
row,melting point [°C],Structure (SMILES)
1,261,"FC(F)(F)c1ccc(-c2cc(C(F)(F)F)n3ncc(-c4ccncc4)c3n2)cc1 [Example 4.15, 5-(4-Trifluoromethyl-phenyl)-3-pyridin-4-yl-7-trifluoromethyl-pyrazolo[1,5-a]pyrimidine]"
2,262,"Fc1cc(-c2cc(C(F)(F)F)n3ncc(-c4ccncc4)c3n2)ccc1C(F)(F)F [Example 4.17, 5-(3-Fluoro-4-trifluoromethyl-phenyl)-3-pyridin-4-yl-7-trifluoromethyl-pyrazolo[1,5-a]pyrimidine]"
3,190,"N#Cc1cnn2c(C(F)(F)F)cc(-c3ccc(F)c(Cl)c3)nc12 [Example 1.14, 5-(3-Chloro-4-fluoro-phenyl)-7-trifluoromethyl-pyrazolo[1,5-a]pyrimidine-3-carbonitrile]"
4,236,"Cc1cc(-c2cc(C(F)F)n3ncc(-c4ccncc4)c3n2)ccc1C(F)(F)F [Example 9.3, 7-Difluoromethyl-5-(3-methyl-4-trifluoromethyl-phenyl)-3-pyridin-4-yl-pyrazolo[1,5-a]pyrimidine]"
5,226,"Cc1cc(-c2cnn3c(C(F)(F)F)cc(-c4ccc(Br)cc4)nc23)ccn1 [Example 4.56, 5-(4-Bromo-phenyl)-3-(2-methyl-pyridin-4-yl)-7-trifluoromethyl-pyrazolo[1,5-a]pyrimidine]"
6,208,"N#Cc1cnn2c(C(F)(F)F)cc(-c3ccccn3)nc12 [Example 1.20, 5-Pyridin-2-yl-7-trifluoromethyl-pyrazolo[1,5-a]pyrimidine-3-carbonitrile]"
7,211,"FC(F)(F)c1ccc(-c2cc(C(F)(F)F)n3cnc(-c4ccncc4)c3n2)cc1C(F)(F)F [Example 8.34, 2-(3,4-Bis-trifluoromethyl-phenyl)-8-pyridin-4-yl-4-trifluoromethyl-imidazo[1,5-a]pyrimidine]"
8,185,"N#CCc1nn2c(C(F)(F)F)cc(-c3ccc(F)c(Cl)c3)nc2c1C#N [Example 3.1, 5-(3-Chloro-4-fluoro-phenyl)-2-cyanomethyl-7-trifluoromethyl-pyrazolo[1,5-a]pyrimidine-3-carbonitrile]"
9,165,"N#Cc1cnn2c(C(F)(F)F)cc(-c3ccccc3F)nc12 [Example 1.11, 5-(2-Fluoro-phenyl)-7-trifluoromethyl-pyrazolo[1,5-a]pyrimidine-3-carbonitrile]"
10,234,"Cc1cc(-c2ncn3c(C(F)(F)F)cc(-c4cccc(C(F)(F)F)c4)nc23)ccn1 [Example 8.25, 8-(2-Methyl-pyridin-4-yl)-4-trifluoromethyl-2-(3-trifluoromethyl-phenyl)-imidazo[1,5-a]pyrimidine]"
11,257,"Cc1cc(-c2ncn3c(C(F)(F)F)cc(-c4ccc(C(F)(F)F)cc4)nc23)ccn1 [Example 8.24, 8-(2-Methyl-pyridin-4-yl)-4-trifluoromethyl-2-(4-trifluoromethyl-phenyl)-imidazo[1,5-a]pyrimidine]"
12,217,"Cc1cc(-c2cc(C(F)(F)F)n3cnc(C#N)c3n2)ccc1C(F)(F)F [Example 5.23, 2-(3-Methyl-4-trifluoromethyl-phenyl)-4-trifluoromethyl-imidazo[1,5-a]pyrimidine-8-carbonitrile]"
13,238,"Cc1nn2c(C(F)(F)F)cc(-c3ccc(Cl)cc3)nc2c1C#N [Example 2.3, 5-(4-Chloro-phenyl)-2-methyl-7-trifluoromethyl-pyrazolo[1,5-a]pyrimidine-3-carbonitrile]"
14,193,"N#Cc1cnn2c(C(F)(F)F)cc(-c3cccnc3)nc12 [Example 1.21, 5-Pyridin-3-yl-7-trifluoromethyl-pyrazolo[1,5-a]pyrimidine-3-carbonitrile]"
15,222,"FC(F)c1cc(-c2ccc(C(F)(F)F)cc2)nc2c(-c3ccncc3)cnn12 [Example 9.1, 7-Difluoromethyl-3-pyridin-4-yl-5-(4-trifluoromethyl-phenyl)-pyrazolo[1,5-a]pyrimidine]"
16,171,"FC(F)(F)c1cccc(-c2cc(C(F)(F)F)n3ncc(-c4cccnc4)c3n2)c1 [Example 4.13, 5-(3-Trifluoromethyl-phenyl)-3-pyridin-3-yl-7-trifluoromethyl-pyrazolo[1,5-a]pyrimidine]"
17,188,"FC(F)(F)c1cc(-c2ccc(Cl)c(Cl)c2)nc2c(-c3ccccn3)cnn12 [Example 4.11, 5-(3,4-Dichloro-phenyl)-3-pyridin-2-yl-7-trifluoromethyl-pyrazolo[1,5-a]pyrimidine]"
18,199,"N#Cc1cnn2c(C(F)(F)F)cc(-c3cccc(F)c3)nc12 [Example 1.8, 5-(3-Fluoro-phenyl)-7-trifluoromethyl-pyrazolo[1,5-a]pyrimidine-3-carbonitrile]"
19,236,"N#Cc1ncn2c(C(F)(F)F)cc(-c3ccc(C(F)(F)F)cc3)nc12 [Example 5.10, 2-(4-Trifluoromethyl-phenyl)-4-trifluoromethyl-imidazo[1,5-a]pyrimidine-8-carbonitrile]"
20,260,"FC(F)(F)c1cc(-c2ccc(Cl)c(Cl)c2)nc2c(-c3ccncc3)cnn12 [Example 4.10, 5-(3,4-Dichloro-phenyl)-3-pyridin-4-yl-7-trifluoromethyl-pyrazolo[1,5-a]pyrimidine]"
21,255,"Cc1cc(-c2ncn3c(C(F)(F)F)cc(-c4ccc(F)c(Cl)c4)nc23)ccn1 [Example 8.22, 2-(3-Chloro-4-fluoro-phenyl)-8-(2-methyl-pyridin-4-yl)-4-trifluoromethyl-imidazo[1,5-a]pyrimidine]"
22,213,"Cc1cc(-c2cnn3c(C(F)F)cc(-c4ccc(C(F)(F)F)cc4)nc23)ccn1 [Example 9.2, 7-Difluoromethyl-3-(2-methyl-pyridin-4-yl)-5-(4-trifluoromethyl-phenyl)-pyrazolo[1,5-a]pyrimidine]"
